Like-named read-outs stand apart in the source and are kept apart here.
Columns and labels:
SET7 [1] = target: T1, SET7 (Homo sapiens, UniProt Q8WTS6); experiment: AlphaLISA SET7 inhibition assay; format: biochemical; conditions: for IC50: SET7; for inhibition at 100 µM: read-out: Inhibition Ratio at 100 μM/%
T1 sequence (Q8WTS6 1-366): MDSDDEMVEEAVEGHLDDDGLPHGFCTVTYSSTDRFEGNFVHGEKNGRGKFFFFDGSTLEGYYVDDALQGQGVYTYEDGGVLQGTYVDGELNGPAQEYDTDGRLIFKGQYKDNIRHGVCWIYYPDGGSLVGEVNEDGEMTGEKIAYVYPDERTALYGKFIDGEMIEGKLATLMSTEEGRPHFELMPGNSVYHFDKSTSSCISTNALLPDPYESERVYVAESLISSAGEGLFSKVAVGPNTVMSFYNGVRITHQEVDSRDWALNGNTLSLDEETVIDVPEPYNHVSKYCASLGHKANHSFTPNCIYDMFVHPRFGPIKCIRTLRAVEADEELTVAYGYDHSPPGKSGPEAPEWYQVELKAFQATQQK
Description: AlphaLISA assays were applied to determine the inhibitory activity targeting SET7. The purified SET7 protein was incubated in modified Tris buffer in 384-well plates (Perkin Elmer, Cat. No. 6007299, Waltham, MA, USA) at room temperature for 15 min. The compounds were transferred to the assay plate using Echo in 100% DMSO, and substrate solution was added to each well to start the reaction. Acceptor and donor beads were added and incubated for 60 min at room temperature, shielded from light. The endpoint was evaluated with EndSpire in Alpha mode. The experimental data was fitted in GraphPad Prism 5 to obtain inhibition values using the equation as follows:(1) Inhibition %= Max−Siginal/Max−Min×100%

SETD1B = target: T2, SETD1B (Homo sapiens, UniProt Q9UPS6); experiment: Enzymatic selectivity assay SETD1B (Alpha mode); format: biochemical; conditions: read-out: Inhibition Ratio at 100 μM/%
T2 construct: purchased Active Motif M1083
Description: (§1) For SETD1B, G9a and SMYD2, the activities against those targets were tested in modified Tris buffer (1× assay buffer). All the solid compounds were dissolved to 20 mM in 100% DMSO. The materials used were SETD1B (Active Motif, Cat. No. M1083, Carlsbad, CA, USA), G9a (BPS, Cat. No. 51001, San Diego, CA, USA), […] and 384-well plate (Perkin Elmer, Cat. No. 6007299). Both the enzyme solution and the substrate solution were prepared in 1× assay buffer enzyme solution or 1× assay buffer for low control was transferred to the assay plate. Then substrate mix solution was added to each well to start the solution for 15 min incubation at room temperature. For SETD1B, G9a, the incubation time was adjusted to 60 min and for SMYD2, the incubation time was set to 240 min. For detection, acceptor and donor beads were added and incubated for 60 min at room temperature, shielded from light. The endpoint was evaluated with EnSpire in Alpha mode.

SMYD2 = target: T3, SMYD2 (Homo sapiens, UniProt Q9NRG4); experiment: Enzymatic selectivity assay SMYD2 (Alpha mode); format: biochemical; conditions: SMYD2, 100 μM; read-out: Inhibition Ratio at 100 μM/%
T3 construct: purchased Active Motif 31323
Description: as §1

G9a = target: T4, G9a (Homo sapiens, UniProt Q96KQ7); experiment: Enzymatic selectivity assay G9a (Alpha mode); format: biochemical; conditions: read-out: Inhibition Ratio at 100 μM/%
T4 construct: purchased BPS 51001
T4 sequence (Q96KQ7 785-1210 limits assumed): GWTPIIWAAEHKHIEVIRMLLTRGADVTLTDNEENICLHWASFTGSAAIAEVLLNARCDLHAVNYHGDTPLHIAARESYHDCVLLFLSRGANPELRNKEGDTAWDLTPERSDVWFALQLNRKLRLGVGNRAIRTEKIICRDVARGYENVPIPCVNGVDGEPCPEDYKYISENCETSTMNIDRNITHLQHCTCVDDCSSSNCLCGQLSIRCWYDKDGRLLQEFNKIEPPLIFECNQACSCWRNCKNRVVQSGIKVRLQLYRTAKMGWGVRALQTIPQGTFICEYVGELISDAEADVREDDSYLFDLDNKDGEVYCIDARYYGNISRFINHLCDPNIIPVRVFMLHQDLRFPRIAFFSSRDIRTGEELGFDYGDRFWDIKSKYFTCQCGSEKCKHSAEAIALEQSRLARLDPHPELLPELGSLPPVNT
Description: as §1

SET7 [2] = target: T1, SET7; experiment: 3H-labeled radioisotope methylation assay; format: biochemical; conditions: 3H radioactive methylation assay
Description: As for ^3Hradioactive methylation assay, SAH was used as the reference compound and the compounds were tested in 10 concentrations in duplicate in modified Tris buffer (1× assay buffer). The following materials were purchased: SET7 (Enzo, Cat. No. ALX-201-178, New York, NY, USA), [^3H]-SAM (PerkinElmer Inc., Lot. No. 1790854), SAH (Sigma, Cat. No. A9384-25MG, St. Louis, MO, USA) and 384-well Flashplate (Perkin Elmer, Cat. No. SMP410A001PK,). The compounds were transferred to the assay plate by Echo 550 with 3-fold dilution in 100% DMSO where the final DMSO concentration is 1%. Then the enzyme solution was transferred to the assay plate and 1× assay buffer was transferred for low control. After 15 min incubation at room temperature, peptide and [^3H]-SAM mix solution was transferred to each well to start the reaction. The cold SAM in 1× buffer was added to each well to stop the reaction after 60 min incubation at room temperature. 25 μL of the whole reaction system per well was transferred to Flashplate which was washed with dH2O and 0.1% Tween-20 for three times after 60 min incubation. The data was read on Microbeta. All the inhibition assays are performed in duplicate.

SETD8 = target: T5, SETD8 (Homo sapiens, UniProt Q9NQR1); experiment: Radioactive methylation inhibition assay of SETD8; format: biochemical; conditions: SETD8, 100 μM; read-out: Inhibition Ratio at 100 μM/%
T5 sequence (Q9NQR1 1-393): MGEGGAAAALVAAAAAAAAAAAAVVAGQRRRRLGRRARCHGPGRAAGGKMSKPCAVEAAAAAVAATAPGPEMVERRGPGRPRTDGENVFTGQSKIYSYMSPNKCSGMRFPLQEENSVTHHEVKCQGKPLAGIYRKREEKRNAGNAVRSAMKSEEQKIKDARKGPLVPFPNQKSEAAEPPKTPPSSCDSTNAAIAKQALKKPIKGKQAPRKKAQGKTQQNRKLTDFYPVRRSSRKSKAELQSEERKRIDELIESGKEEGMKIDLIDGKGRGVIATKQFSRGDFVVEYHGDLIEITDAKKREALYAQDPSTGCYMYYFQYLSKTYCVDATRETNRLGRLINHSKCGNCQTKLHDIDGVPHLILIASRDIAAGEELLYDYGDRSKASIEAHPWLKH
Description: The radioactive methylation inhibition assay of SETD8 was performed in modified Tris buffer. […] and [^3H]-SAM (PerkinElmer, Cat No. NET1551MC) were added in 1x buffer as the substrate solution. The enzyme solution was incubated at room temperature for 15 min before substrate solution was added to each well to start the reaction. Cold SAM (Sigma, Cat. No. 7007-100MG) was added in 1x buffer to prepare the stop mix, and was added to stop the reaction; finally 10 μL of the reaction system was transferred to flashplate (PerkinElmer Inc., Cat. No. SMP410A001PK) and incubated at room temperature for a minimum of 2 h. The plate was washed three times with dH2O and 0.1% Tween-20, and the radioactivity signal was detected by liquid scintillation counting (MicroBeta, PerkinElmer). SAH was used as the reference compound.

EZH2 = EZH2 (Homo sapiens, UniProt Q15910); experiment: Radioactive methylation inhibition assay of EZH2; format: biochemical; conditions: EZH2, 100 μM
Description: The radioactive methylation inhibition assay of EZH2 was performed in modified Tris buffer. H3K27me peptide and [^3H]-SAM (Perkin Elmer Inc. Waltham, MA, USA, Lot. No. 1731619) were added in 1x buffer as the substrate solution. The […] solution was incubated at room temperature for 15 min before substrate solution was added to each well to start the reaction. Cold SAM (Sigma, Cat. NO. 7007) was added in 1× buffer to prepare stop mix (final concentration 0.5 mM), and was added to stop the reaction; finally 25 μL of the reaction system was transferred to a FlashPlate (Perkin Elmer, Cat. No. SMP410A001PK) and incubated at room temperature for a minimum of 1 h. The plate was washed three times with dH2O and 0.1% Tween-20, and the radioactivity was determined by liquid scintillation counting (MicroBeta). GSK-126 was used as the reference compound.

SET7 [3] = target: T6, SET7 (Homo sapiens, UniProt Q8WTS6); experiment: Ligand observed T1rho (CPMG) NMR experiment; format: binding; conditions: 20 μM compound, 2.5 μM SET7
T6 sequence (Q8WTS6 117-366 limits assumed): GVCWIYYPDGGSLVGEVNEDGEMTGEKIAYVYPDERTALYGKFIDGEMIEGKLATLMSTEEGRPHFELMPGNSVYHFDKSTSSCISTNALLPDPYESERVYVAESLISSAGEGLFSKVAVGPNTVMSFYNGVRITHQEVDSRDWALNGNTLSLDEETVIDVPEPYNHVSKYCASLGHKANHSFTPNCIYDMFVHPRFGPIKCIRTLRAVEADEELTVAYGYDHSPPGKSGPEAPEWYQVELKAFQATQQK
Description: Ligand observed T1ρ NMR experiment were applied to investigate ligand-protein interactions. All NMR spectra were acquired at 25 °C on a 600 MHz Bruker Avance III spectrometer equipped with a cryogenically cooled probe (Bruker Biospin, Ettlingen, Germany). Samples containing 20 μM DC-S285, and 20 μM DC-S285 in the presence of 2.5 μM SET7 were dissolved in Tris-HCl buffer (50 mM Tris-HCl, 100 mM NaCl, pH 7.4, 5% DMSO, 95% D2O) and then used in NMR data acquisition. T1ρ spectra were recorded by using the pulse sequence of solvent-suppressed ^1D ^1H CPMG (cpmgPr1d). The 90° pulse length was adjusted to about 11.80 μs. A total of four dummy scans and 64 free induction decays (FIDs) were collected into 64 K acquisition points, covering a spectral width of 12 kHz (20 ppm) and giving an acquisition time (ACQ) of 2.73 s. STD data was acquired using 4 dummy scans and a relaxation delay of 3 s, followed by a 40 dB pulsed irradiation at frequency of −1.0 ppm or 33 ppm alternatively. The total acquisition time for STD spectrum was 23 min with 128 FIDs.

THP1 leukemia cell line = experiment: Cell viability assay (alamarBlue / MTT), THP1; format: cell-based; conditions: Homo sapiens, THP-1, 72 h, THP1, approximately 72 h
Description: (§2) MCF7, HL60, MV4-11, K562, Kasumi-1, U937, THP1, and Jurkat cell lines were purchased from American Type Culture Collection (Manassas, VA, USA). Fetal bovine serum was purchased from Life Technologies. MCF7 cells were cultured in DMEM medium supplemented with 10% fetal bovine serum at 37 °C in an incubator with 5% CO2 atmosphere. HL60 and MV4-11 cells were cultured in 1640 medium supplemented with 10% fetal bovine serum. K562, Kasumi-1 and HL60 were cultured in 96 plate at 10,000/well for 2 h. DC-S285 was dissolved in DMSO (Sigma) and then stored at 4 °C. The cells were incubated with DC-S285 at different concentrations ranging from 0 to 100 µM for approximately 72 h. The activities of […] against MCF7, HL60, MV4-11, K562, Kasumi-1, U937, THP1, and Jurkat were measured by the alamarBlue assays and MTT assays.

U937 leukemia cell line = experiment: Cell viability assay (alamarBlue / MTT), U937; format: cell-based; conditions: Homo sapiens, U-937, 72 h, U937, approximately 72 h
Description: as §2

[4] = tested on: Jurkat leukemia cell line; experiment: Cell viability assay (alamarBlue / MTT), Jurkat; format: cell-based; conditions: Homo sapiens, 72 h, approximately 72 h
Description: as §2

[5] = tested on: MCF7 (breast cancer) cells; experiment: Cell viability assay (alamarBlue / MTT), MCF7; format: cell-based; conditions: Homo sapiens, MCF7, 72 h, MCF7, approximately 72 h
Description: as §2

Sequence of EZH2 (Q15910 whole entry, species assumed): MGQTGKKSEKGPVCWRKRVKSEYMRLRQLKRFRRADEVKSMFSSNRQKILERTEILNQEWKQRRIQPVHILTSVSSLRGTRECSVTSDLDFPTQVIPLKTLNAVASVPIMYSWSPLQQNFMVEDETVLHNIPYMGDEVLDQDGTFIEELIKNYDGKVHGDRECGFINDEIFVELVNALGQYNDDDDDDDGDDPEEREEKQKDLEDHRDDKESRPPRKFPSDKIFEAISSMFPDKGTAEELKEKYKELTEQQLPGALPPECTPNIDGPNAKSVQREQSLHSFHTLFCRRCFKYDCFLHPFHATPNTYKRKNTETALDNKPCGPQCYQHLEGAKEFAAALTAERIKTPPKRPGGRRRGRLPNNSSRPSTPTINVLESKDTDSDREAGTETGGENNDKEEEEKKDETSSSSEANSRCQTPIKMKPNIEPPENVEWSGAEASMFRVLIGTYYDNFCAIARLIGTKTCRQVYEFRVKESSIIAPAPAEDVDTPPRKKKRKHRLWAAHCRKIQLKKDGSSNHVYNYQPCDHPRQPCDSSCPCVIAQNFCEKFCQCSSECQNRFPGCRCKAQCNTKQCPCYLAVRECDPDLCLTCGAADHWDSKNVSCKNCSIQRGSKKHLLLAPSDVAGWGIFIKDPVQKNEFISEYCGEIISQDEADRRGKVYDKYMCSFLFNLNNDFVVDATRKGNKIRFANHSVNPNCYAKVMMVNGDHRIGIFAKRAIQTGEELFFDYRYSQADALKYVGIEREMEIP
Sequence of EZH2 (O75530 whole entry partner, species assumed): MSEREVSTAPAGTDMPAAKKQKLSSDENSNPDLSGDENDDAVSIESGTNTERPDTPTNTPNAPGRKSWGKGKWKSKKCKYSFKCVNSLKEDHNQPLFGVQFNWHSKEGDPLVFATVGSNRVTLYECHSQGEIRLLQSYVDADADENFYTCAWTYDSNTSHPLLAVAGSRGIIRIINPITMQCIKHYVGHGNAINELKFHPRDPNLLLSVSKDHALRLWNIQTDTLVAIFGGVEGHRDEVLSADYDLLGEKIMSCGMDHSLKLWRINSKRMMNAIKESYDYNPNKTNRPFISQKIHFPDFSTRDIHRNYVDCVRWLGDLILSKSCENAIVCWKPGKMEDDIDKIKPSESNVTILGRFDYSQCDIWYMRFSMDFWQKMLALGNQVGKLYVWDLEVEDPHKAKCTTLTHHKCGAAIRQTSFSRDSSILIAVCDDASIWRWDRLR
Sequence of EZH2 (Q15022 whole entry partner, species assumed): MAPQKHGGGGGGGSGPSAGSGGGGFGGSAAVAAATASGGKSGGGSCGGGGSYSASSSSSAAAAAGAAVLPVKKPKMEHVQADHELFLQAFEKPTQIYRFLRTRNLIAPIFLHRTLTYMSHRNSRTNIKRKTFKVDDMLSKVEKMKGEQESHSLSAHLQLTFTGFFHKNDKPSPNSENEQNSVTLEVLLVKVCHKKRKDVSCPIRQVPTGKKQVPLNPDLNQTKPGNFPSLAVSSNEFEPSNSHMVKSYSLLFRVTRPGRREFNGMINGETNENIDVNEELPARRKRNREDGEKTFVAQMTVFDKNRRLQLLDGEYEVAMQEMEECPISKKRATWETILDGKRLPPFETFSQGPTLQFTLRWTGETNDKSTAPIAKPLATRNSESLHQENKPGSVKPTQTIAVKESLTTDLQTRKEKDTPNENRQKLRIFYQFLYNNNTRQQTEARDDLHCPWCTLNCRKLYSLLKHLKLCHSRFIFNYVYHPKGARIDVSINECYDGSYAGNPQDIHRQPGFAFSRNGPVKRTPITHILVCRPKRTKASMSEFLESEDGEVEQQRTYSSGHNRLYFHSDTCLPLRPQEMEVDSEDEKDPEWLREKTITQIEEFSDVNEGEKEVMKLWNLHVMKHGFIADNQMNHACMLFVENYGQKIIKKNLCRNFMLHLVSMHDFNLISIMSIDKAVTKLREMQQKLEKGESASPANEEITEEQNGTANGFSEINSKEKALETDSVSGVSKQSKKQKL
T3 sequence (Q9NRG4 whole entry): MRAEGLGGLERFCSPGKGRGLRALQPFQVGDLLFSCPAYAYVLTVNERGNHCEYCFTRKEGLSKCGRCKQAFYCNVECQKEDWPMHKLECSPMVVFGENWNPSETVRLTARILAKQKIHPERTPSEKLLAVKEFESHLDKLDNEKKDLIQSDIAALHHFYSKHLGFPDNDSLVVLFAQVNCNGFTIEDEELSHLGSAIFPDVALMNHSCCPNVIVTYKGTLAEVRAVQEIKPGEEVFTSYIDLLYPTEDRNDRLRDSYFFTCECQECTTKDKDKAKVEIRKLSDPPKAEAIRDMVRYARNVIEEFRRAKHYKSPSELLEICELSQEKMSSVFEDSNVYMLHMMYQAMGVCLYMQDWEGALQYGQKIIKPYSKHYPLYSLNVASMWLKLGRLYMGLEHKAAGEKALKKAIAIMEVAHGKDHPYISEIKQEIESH

SMILES	IC50 (SET7 [1]; AlphaLISA assay) [µM]	inhibition at 100 µM (SET7 [1]; AlphaLISA assay, SET7, 100 μM) [%]	inhibition at 100 µM (SET7 [1]; SETD7, 100 μM, selectivity panel (Table 3)) [%]	inhibition at 100 µM (SETD1B) [%]	inhibition at 100 µM (SMYD2) [%]	inhibition at 100 µM (G9a) [%]	IC50 (SET7 [2]) [µM]	inhibition at 100 µM (SETD8) [%]	Inhibition Ratio at 100 μM/% (EZH2) [%]	binding to SET7 in T1ρ (CPMG) NMR (SET7 [3])	IC50 (THP1 leukemia cell line) [µM]	IC50 (U937 leukemia cell line) [µM]	IC50 [4] [µM]	IC50 [5] [µM]
O=C(N/N=C/c1cc([N+](=O)[O-])ccc1Cl)c1ccc(-c2ccccc2)cc1 [DC-S303]	1.1	99	90.5	27.1	24.6	52.6	2.9	55.2	47.88					
COc1ccc(C(=O)N/N=C/c2ccc([N+](=O)[O-])cc2)cc1Br [DC-S285]	9.3						19.5			Strong binding signals	3.5	3.9	2.2	21.4

— article PMC6017732, “Identification and Characterizations of Novel, Selective Histone Methyltransferase SET7 Inhibitors by Scaffold Hopping- and 2D-Molecular Fingerprint-Based Similarity Search” (Molecules : A Journal of Synthetic Chemistry and Natural …, 2018)
